Results on 19 molecules are retold here after patent US12037345B2, “Heterobicyclic compounds for inhibiting the activity of SHP2” (TAIHO PHARMACEUTICAL CO., LTD., priority 2018, dated 2024).

Assay [1] has as its system pERK (phospho-p44/42 ERK) in HCC827 cells. Briefly: Cellular pERK Inhibition Assay, Method A (In-Cell Western). In kind it is cell-based. To be noted: Homo sapiens, Table 19, head prints unit as "-M", read-out: pERK (IC50) Method A. The method in brief:
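HCC827 cells in RPMI/10% FBS were treated with compounds in serum-free medium (0.2% DMSO final) at 37 °C for the indicated time, in quadruplicate. Fixed cells were immunostained for phospho-p44/42 ERK and read by infrared imaging. Blank-subtracted signal was expressed as % of DMSO control; IC50 from four-parameter logistic fit, averaged across experiments.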

Assay [2] addresses SHP2 (Homo sapiens (Human), UniProt Q06124). Kind of assay: SHP2 Biochemical Assay (DiFMUP conversion, pIRS1-activated). The note with it: Table 19; head prints unit as "-M". Summed up:
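Human SHP2 (10 pM) pre-incubated 30 min with compound and […] pIRS1 activating peptide, then 50 μM DiFMUP added; buffer 25 mM Bis-Tris propane pH 7.0, 150 mM NaCl, 5% DMSO. Fluorescence rate (ex 360/em 450 nm) over 30 min; IC50 by four-parameter fit, averaged across experiments.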

SMILES strings stand for the structures.

SHP2, sequence (Q06124 whole entry): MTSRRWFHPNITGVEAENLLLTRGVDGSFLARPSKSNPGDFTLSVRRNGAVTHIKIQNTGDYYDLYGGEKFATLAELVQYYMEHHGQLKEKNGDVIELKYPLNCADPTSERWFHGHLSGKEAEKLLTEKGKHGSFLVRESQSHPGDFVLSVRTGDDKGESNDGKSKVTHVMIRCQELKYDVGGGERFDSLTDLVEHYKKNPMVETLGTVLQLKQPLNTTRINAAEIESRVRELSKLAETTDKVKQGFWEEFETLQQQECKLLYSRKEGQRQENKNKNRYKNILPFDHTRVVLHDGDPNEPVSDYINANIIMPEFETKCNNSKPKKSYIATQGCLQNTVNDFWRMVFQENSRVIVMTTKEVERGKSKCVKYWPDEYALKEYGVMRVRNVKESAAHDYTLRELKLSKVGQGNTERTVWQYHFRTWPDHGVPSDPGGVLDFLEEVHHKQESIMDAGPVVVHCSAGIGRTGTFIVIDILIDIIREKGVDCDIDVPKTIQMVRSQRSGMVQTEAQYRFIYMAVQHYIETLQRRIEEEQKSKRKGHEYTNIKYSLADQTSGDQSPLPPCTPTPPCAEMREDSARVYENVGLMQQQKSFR

Broadly, the IC50 is the midpoint of a concentration-inhibition curve. On to `Cn1cc2c(Cl)c(-c3c[nH]c4nc(N5CC6CCCC(C5)N6)n(C)c(=O)c34)ccc2n1` [Example 30, 2-(3,9-diazabicyclo[3.3.1]nonan-3-yl)-5-(4-chloro-2-methyl-2H-indazol-5-yl)-3-methyl-3,7-dihydro-4H-pyrrolo[2,3-d]pyrimidin-4-one], for which the IC50 in assay [1] came out at 220 nM; in assay [2], 9.7 nM.

As for `Cn1cc2c(Cl)c(-c3c[nH]c4nc(N5CC6CC(C5)N6)n(C)c(=O)c34)ccc2n1` [Example 31, 2-(3,6-diazabicyclo[3.1.1]heptan-3-yl)-5-(4-chloro-2-methyl-2H-indazol-5-yl)-3-methyl-3,7-dihydro-4H-pyrrolo[2,3-d]pyrimidin-4-one], the figures for the IC50 in assay [1] and in assay [2] were 1000 nM and 40 nM, respectively.

`Cn1cc2c(Cl)c(-c3c[nH]c4nc(N5CC6CCC5CN6)n(C)c(=O)c34)ccc2n1` (centres unmarked) [Example 32, 2-(2,5-diazabicyclo[2.2.2]octan-2-yl)-5-(4-chloro-2-methyl-2H-indazol-5-yl)-3-methyl-3,7-dihydro-4H-pyrrolo[2,3-d]pyrimidin-4-one]: the IC50 in assay [1] was 920 nM; in assay [2] it was 17 nM.

As for `Cn1cc2c(Cl)c(-c3c[nH]c4nc(N5C[C@H]6C[C@@H](C5)[C@@H]6N)n(C)c(=O)c34)ccc2n1` [Example 33, 2-(exo-6-amino-3-azabicyclo[3.1.1]heptan-3-yl)-5-(4-chloro-2-methyl-2H-indazol-5-yl)-3-methyl-3,7-dihydro-4H-pyrrolo[2,3-d]pyrimidin-4-one], the IC50 in assay [1] is 480 nM; in assay [2], 47 nM.

Take `Cn1cc2c(Cl)c(-c3c[nH]c4nc(N5C[C@H]6C[C@@H](C5)[C@H]6N)n(C)c(=O)c34)ccc2n1` [Example 34, 2-(endo-6-amino-3-azabicyclo[3.1.1]heptan-3-yl)-5-(4-chloro-2-methyl-2H-indazol-5-yl)-3-methyl-3,7-dihydro-4H-pyrrolo[2,3-d]pyrimidin-4-one]: the IC50 worked out at 2300 nM in assay [1] and 160 nM in assay [2].

With `Cn1cc2c(Cl)c(-c3c[nH]c4nc(N5CC6CC5CC6N)n(C)c(=O)c34)ccc2n1` (centres unmarked) [Example 35, 2-(5-amino-2-azabicyclo[2.2.1]heptan-2-yl)-5-(4-chloro-2-methyl-2H-indazol-5-yl)-3-methyl-3,7-dihydro-4H-pyrrolo[2,3-d]pyrimidin-4-one], the IC50 in assay [1] worked out at 1000 nM; in assay [2] it was 38 nM.

For `Cn1cc2c(Cl)c(-c3c[nH]c4nc(N5[C@@H]6CCC[C@H]5C[C@H](N)C6)n(C)c(=O)c34)ccc2n1` [Example 36, 2-(exo-3-amino-9-azabicyclo[3.3.1]nonan-9-yl)-5-(4-chloro-2-methyl-2H-indazol-5-yl)-3-methyl-3,7-dihydro-4H-pyrrolo[2,3-d]pyrimidin-4-one], the results for the IC50 in assay [1] and in assay [2] were 350 nM and 5.5 nM, respectively.

`Cn1cc2c(Cl)c(-c3c[nH]c4nc(N5[C@@H]6CCC[C@H]5C[C@@H](N)C6)n(C)c(=O)c34)ccc2n1` [Example 37, 2-(endo-3-amino-9-azabicyclo[3.3.1]nonan-9-yl)-5-(4-chloro-2-methyl-2H-indazol-5-yl)-3-methyl-3,7-dihydro-4H-pyrrolo[2,3-d]pyrimidin-4-one]: the IC50 in assay [1] is 970 nM; in assay [2], 12 nM.

Turning to `Cn1cc2c(Cl)c(-c3c[nH]c4nc(N5CCC6(CCCN6)CC5)n(C)c(=O)c34)ccc2n1` [Example 38, 5-(4-chloro-2-methyl-2H-indazol-5-yl)-3-methyl-2-(1,8-diazaspiro[4.5]decan-8-yl)-3,7-dihydro-4H-pyrrolo[2,3-d]pyrimidin-4-one], the figures for the IC50 in assay [1] and in assay [2] were 1400 nM and 74 nM, respectively.

In the case of `Cn1cc2c(Cl)c(-c3c[nH]c4nc(N5CCNCC5)n(C)c(=O)c34)ccc2n1` [Example 39, 5-(4-chloro-2-methyl-2H-indazol-5-yl)-3-methyl-2-(piperazin-1-yl)-3,7-dihydro-4H-pyrrolo[2,3-d]pyrimidin-4-one], the results for the IC50 in assay [1] and in assay [2] were 700 nM and 66 nM, respectively.

With `Cn1cc2c(Cl)c(-c3c[nH]c4nc(N5CCC6NCC6C5)n(C)c(=O)c34)ccc2n1` (centres unmarked) [Example 40, 2-(3,7-diazabicyclo[4.2.0]octan-3-yl)-5-(4-chloro-2-methyl-2H-indazol-5-yl)-3-methyl-3,7-dihydro-4H-pyrrolo[2,3-d]pyrimidin-4-one], the IC50 in assay [1] was 4500 nM; in assay [2], 96 nM.

As to `Cn1cc2c(Cl)c(-c3c[nH]c4nc(N5CCC6(CCCCN6)CC5)n(C)c(=O)c34)ccc2n1` [Example 41, 5-(4-chloro-2-methyl-2H-indazol-5-yl)-3-methyl-2-(1,9-diazaspiro[5.5]undecan-9-yl)-3,7-dihydro-4H-pyrrolo[2,3-d]pyrimidin-4-one], the IC50 in assay [1] is 1800 nM; in assay [2], 57 nM.

As to `Cn1cc2c(Cl)c(-c3c[nH]c4nc(N5CC[C@H](N)C5)n(C)c(=O)c34)ccc2n1` [Example 43, (S)-2-(3-aminopyrrolidin-1-yl)-5-(4-chloro-2-methyl-2H-indazol-5-yl)-3-methyl-3,7-dihydro-4H-pyrrolo[2,3-d]pyrimidin-4-one], the IC50 in assay [1] came to 720 nM; in assay [2], 35 nM.

Regarding `Cn1cc2c(Cl)c(-c3c[nH]c4nc(N5CC[C@@H](N)C5)n(C)c(=O)c34)ccc2n1` [Example 44, (R)-2-(3-aminopyrrolidin-1-yl)-5-(4-chloro-2-methyl-2H-indazol-5-yl)-3-methyl-3,7-dihydro-4H-pyrrolo[2,3-d]pyrimidin-4-one], the IC50 in assay [1] was 1500 nM; in assay [2] it was 55 nM.

For the molecule `C[C@H]1CN(c2nc3[nH]cc(-c4ccc5nn(C)cc5c4Cl)c3c(=O)n2C)CCN1` [Example 45, (S)-5-(4-chloro-2-methyl-2H-indazol-5-yl)-3-methyl-2-(3-methylpiperazin-1-yl)-3,7-dihydro-4H-pyrrolo[2,3-d]pyrimidin-4-one], the IC50 in assay [1] was 1500 nM; in assay [2], 110 nM.

`Cn1cc2c(Cl)c(-c3c[nH]c4nc(N5[C@@H]6CC[C@H]5[C@@H](N)C6)n(C)c(=O)c34)ccc2n1` [Example 46, 2-((1S,2S,4R)-2-amino-7-azabicyclo[2.2.1]heptan-7-yl)-5-(4-chloro-2-methyl-2H-indazol-5-yl)-3-methyl-3,7-dihydro-4H-pyrrolo[2,3-d]pyrimidin-4-one]: the IC50 in assay [1] was determined as 420 nM; in assay [2] it was 33 nM.

Regarding `C[C@@H]1CNCCN1c1nc2[nH]cc(-c3ccc4nn(C)cc4c3Cl)c2c(=O)n1C` [Example 47, (R)-5-(4-chloro-2-methyl-2H-indazol-5-yl)-3-methyl-2-(2-methylpiperazin-1-yl)-3,7-dihydro-4H-pyrrolo[2,3-d]pyrimidin-4-one], the results for the IC50 in assay [1] and in assay [2] were 380 nM and 32 nM, respectively.

Take `C[C@H]1CNCCN1c1nc2[nH]cc(-c3ccc4nn(C)cc4c3Cl)c2c(=O)n1C` [Example 48, (S)-5-(4-chloro-2-methyl-2H-indazol-5-yl)-3-methyl-2-(2-methylpiperazin-1-yl)-3,7-dihydro-4H-pyrrolo[2,3-d]pyrimidin-4-one]: the IC50 in assay [1] worked out at 1000 nM; in assay [2], 85 nM.

Consider `Cn1cc2c(Cl)c(-c3c[nH]c4nc(N5[C@H]6CC[C@@H]5[C@H](N)C6)n(C)c(=O)c34)ccc2n1` [Example 49, 2-((1R,2R,4S)-2-amino-7-azabicyclo[2.2.1]heptan-7-yl)-5-(4-chloro-2-methyl-2H-indazol-5-yl)-3-methyl-3,7-dihydro-4H-pyrrolo[2,3-d]pyrimidin-4-one], for which the values for the 50% inhibitory concentration (IC50) in assay [1] and in assay [2] were 21 nM and 4.5 nM, respectively.
